Test results published in US20240325335A1, “BIOLOGICALLY COMPATIBLE, BIOFILM DISRUPTING COMPOSITION AND METHODS” (priority 2023, published 2024).
Several values for one entry are separate records, joined by “and”; a condition that tells them apart may be missing. Equal values may be shown once. Starred links: 1 amine or outer side, 2 acyl side, 3 side chain; linkers in the order of their positions; H or OH if unused. Positions of bridges follow the written chain, without caps; N, C: chain ends. Non-standard residues stand in square brackets, D forms with d. Residues, ends and D or L forms follow the SMILES beside them. X1 = CC(C)CCCCCCCCC[C@H](CC(=O)[*:1])O[*:2]

Columns and labels:
[1] = test system: Mycobacterium fortuitum (ATCC #6841) biofilm; experiment: Protocol #6 mycobacterial biofilm in silicone tubing; format: cell-based; settings: pH 9.0, 5 hours contact time
Description: Two challenge microorganisms are separately evaluated: Brevundimonas diminuta (ATCC #19146) and Mycobacterium fortuitum (ATCC #6841). Biofilms of each challenge microorganism were formed in laboratory-created tubing loops consisting of a length of silicone tubing connected to a bottle of challenge microorganism in growth broth. The fluid within the tubing loop was recirculated for 10 to 14 days (Mycobacterium fortuitum) at a flowrate of 30 mL/minute while held at 36° C. (Mycobacterium fortuitum). Following completion of biofilm generation, the tubing loops were drained, and the tube lumen gently rinsed with phosphate-buffered water to remove planktonic (i.e., non-biofilm) challenge microorganisms. The tubing was then disinfected according to the manufacturer's Instructions for Use. At the completion of treatment, a portion of the silicone tubing was removed for analysis of biofilm concentration and imaging of biofilm coverage.

[2] = test system: Candida albicans 48 hour biofilm; experiment: P #5B-D Candida biofilm testing; format: cell-based; settings: pH 9.0-9.5, one hour contact time
Description: Organisms: Candida albicans ([…] 1078). Date Culture Initiated: […] Culture Medium: Sabouraud dextrose agar. […] These tests were performed utilizing only UDA, due to the poor GML results in P #5A. […] […] Effect of Aspartic Acid, Cysteine, Salicylic Acid […] Prior literature indicates poor antifungal effects in alkaline pH, thus it was the intent to document whether disclosed compositions would generate an improved antifungal effect in alkaline pH.

[3] = test system: Pseudomonas aeruginosa biofilm; experiment: Biofilm Protocol #3, LR against 48-hour biofilm, CDC Biofilm Reactor; format: cell-based; settings: pH 9.0, 5 hours contact time
Description: LR testing was performed with varying compositions of GML and UDA against Staph. aureus, Pseudomonas aeruginosa, E. coli., Klebsiella pneumonia, Enterococcus faecalis. All biofilm is 48 hour laboratory grown. Biofilms of the tested organisms were grown in the laboratory to become mature 48-hour old biofilm. Testing involved the evaluation of numerous composition combinations for their ability to kill biofilm-associated pathogens grown using a CDC Biofilm Reactor. The ability to kill organisms was documented as a LR of the selected organisms that was measured as CFUs (colony forming units). LRs were documented for the different composition combinations. Testing protocols initially included both FAs and esters. […] LR testing was performed with numerous combinations to determine an optimal combination. […] Additional combinations comprised the plant phenol/flavonoid quercetin, amino acids, the synthetic surfactant SLS, biosurfactants RL and MEL, and UDA. The BS SL was not tested due to poor results in the prior P #2 configurations. […] The TSC served as a buffer. […] Alkaline pH was buffered with disodium hydrogen phosphate or glycine.

C. trachomatis = settings: Bergsson, '98; cited from earlier work
[4] = test system: Pseudomonas aeruginosa (ATCC #15442) biofilm; experiment: Biofilm Protocol #2, ASTM E2871 single tube method, 48 hour biofilm; format: cell-based
Description: (§1) In this round of testing, it was the intent to test numerous potential antibiofilm combinations.
(§2) EtOH (ethanol) was used as a solvent for all hydrophobic compounds: SLs, CaprAc, CURC and OCT. EtOH was used at up to 1.0% concentration.
(§3) Alkaline pH is achieved with NaOH titration.
(§4) Each was performed in one replicate for each species. A single sponsor-selected exposure duration was evaluated. The challenge organisms for this evaluation were Pseudomonas aeruginosa (ATCC #15442) and Staphylococcus aureus MRSA (ATCC #6538

[5] = test system: Staphylococcus aureus MRSA (ATCC #6538) biofilm; experiment: as above; format: cell-based
Description: as §1, §2, §3, §4

[6] = test system: Pseudomonas aeruginosa (ATCC #15442) biofilm; experiment: Biofilm Protocol #1, ASTM E2871 single tube method, CDC Biofilm Reactor; settings: 5-minute contact time; for Log10 CFU/Coupon: treated coupons
[7] = test system: Staphylococcus aureus (ATCC #6538) biofilm; experiment: as above; settings: 5-minute contact time; for Log10 CFU/Coupon: treated coupons
[8] = test system: Candida albicans (ATCC MYA-2876; TPPS 1078), planktonic; experiment: P #5A planktonic antifungal testing; format: cell-based; settings: up to 5-hour contact time, lecithin solubilizer
Description: Two sets of planktonic antifungal tests were performed, Candida and the dermatophyte Epidermophyton floccusum. Fungal strains-Candida albicans (ATCC MYA-2876; TPPS 1078) procured from the American Type Culture Collection, Manassas, VA.-Epidermophyton floccosum (ATCC 15693; TPPS 1243) procured from the American Type Culture Collection, Manassas, VA.

P. acnes = experiment: Protocol #4 in-vitro time-kill (ASTM E2315); format: cell-based, Propionibacterium acnes
Description: PURPOSE: This evaluation uses an in-vitro time-kill method to quantitatively assess the bactericidal activity of […] (10) formulations when challenged with P. acnes. An in vitro time-kill evaluation was conducted with various compositions based upon the methods described in the standardized ASTM […], Standard Guide for Assessment of Antimicrobial Activity Using a Time-Kill Procedure. […] A neutralization assay was performed on all the challenge organisms. Testing at pH 4.0.

[9] = aqueous
[10] = test system: Herpes Simplex Virus type 1 strain HF (ATCC #VR-260); experiment: Virucidal Suspension Test (ASTM E1052-20, in-vitro time-kill); format: cell-based; settings: pH 9.0, 30 sec
Text: The testing was based upon ASTM E1052-20, Standard Practice to Assess the Activity of Microbicides against Viruses in Suspension. The first antiviral testing protocols involve only HSV-1 virus with both alkaline and acid pH tests.
This study was done to determine virucidal efficacy of twelve test products when challenged with Herpes Simplex Virus type 1 strain HF (ATCC #VR-260) based upon a Virucidal Suspension Test (In-Vitro Time-Kill method). The test products comprise 8 varying compositions. Calculations of the estimated virus concentrations was performed using a 50% tissue culture infectious dose (TCID50) calculation—the Quantal test (Spearman-Karber Method). The logo reductions from the initial population of the viral strain were determined following exposure to the test product for 30 seconds, 2.5 minutes and 5 minutes. Testing was conducted in one replicate. Plating was performed in four replicates. […]
This study was done to determine virucidal efficacy of 12 test products when challenged with HSV-1 strain HF (ATCC #VR-260) and Human Coronavirus strain OC43 (ZeptoMetrix #0810024CF) based upon a Virucidal Suspension Test (In-Vitro Time-Kill method). […] The log 10 reductions from the initial population of the viral strain were determined following exposure to the test product for 30 seconds, 2.5 minutes and 5 minutes. […]

enveloped viruses = settings: at 1 hour, virtually all enveloped viruses tested (Hierholzer, '16); cited from earlier work
[11] = cited from earlier work
[12] = at 24 hours (Zeichner, '13); cited from earlier work
cold sores = experiment: Additional clinical data and case study, cold sores; format: in vivo, human; settings: case study patient (untreated 2-4 weeks)

Which LR [1] does the source give for `C=CCCCCCCCCC(=O)O` [UDA, undecylenic acid] here?
The LR was > 5.31.

And the LR [2]?
Its LR is > 4.

For `CCCCCCCCCCCCOS(=O)(=O)[O-].[Na+]` [SLS, sodium lauryl sulfate], which “LR PA” value [3] is on record?
Its value is 3.76.

For `CCCCCC/C=C\CCCCCCCC(=O)O` [palmitoleic acid], which “reduction in the infectivity titer / inactivation” value (C. trachomatis) is on record?
The value was “negligible effects”.

Which “reduction in the infectivity titer / inactivation” value (C. trachomatis) does the source give for `CCCCCCCC/C=C\CCCCCCCC(=O)O` [oleic acid] here?
Its value is “negligible effects”.

What does the source list for benzalkonium chloride [BAC]?
LOG REDUCTIONS Pseud ([4]; Acid pH 4.0): > 6 and > 7; LOG REDUCTIONS Staph ([5]; Acid pH 4.0): 6.12 and > 7

Which “Log10 Reduction” value [6] does the source give for `CC(C)CCCCCCCCC[C@@H]1CC(=O)N[C@@H](CCC(=O)O)C(=O)N[C@@H](CC(C)C)C(=O)N[C@H](CC(C)C)C(=O)N[C@@H](C(C)C)C(=O)N[C@@H](CC(=O)O)C(=O)N[C@H](CC(C)C)C(=O)N[C@@H](CC(C)C)C(=O)O1` [Surfactin] (EL[dL]VD[dL]L; linker N-C via X1) here?
The value was 0.00.

What about the “Percent Reduction” value [6] of the same molecule?
Its value is 0.00%.

And the “Log10 CFU/Coupon” value [6]?
The value was 9.18.

What about the “Log10 Reduction” value [7] of the same molecule?
Its value is 0.00.

What about the “Percent Reduction” value [7] of the same molecule?
The value was 0.00%.

What about the “Log10 CFU/Coupon” value [7] of the same molecule?
The value was 8.28.

With `CCCCCCCCCCCC(=O)OCC(O)CO` (centres unmarked) [GML, glycerol monolaurate] as the molecule, how does the “LRs against planktonic C. albicans” value [8] read?
The value was 0-1.

What about the “Log Reductions 0.5 (30 seconds)” value (P. acnes; pH 4.0, 30 seconds exposure) of the same molecule?
Its value is 1.87.

What about the “Log Reductions 5 min” value (P. acnes; pH 4.0, 5 min exposure) of the same molecule?
Its value is 4.81.

What about the “reduction in the infectivity titer / inactivation” value (C. trachomatis) of the same molecule?
Its value is “negligible effects”.

What about the “maximum concentration of GML solubilized” value ([9]; EtOH 1% as solvent) of the same molecule?
The value was 0.1%.

And the GML concentration solubilized ([9]; deoiled lecithin as solubilizer)?
Its GML concentration solubilized is ≥ 20%.

What about the “LR 30 sec” value [10] of the same molecule?
Its value is > 5.5 and > 4.75 and > 5.25.

And the log reduction (enveloped viruses)?
Its log reduction is > 3.

And the “LR PA” value [3]?
The value was 9.11.

What about the maximal water solubility [11] of the same molecule?
Its maximal water solubility is < 100 µg/mL.

For `CCCCCCCCCCCCCC(=O)O` [myristic acid], which “reduction in the infectivity titer / inactivation” value (C. trachomatis) is on record?
The value was “negligible effects”.

For `CCCCCCCCN=c1ccn(CCCCCCCCCCn2ccc(=NCCCCCCCC)cc2)cc1` [OCT, octenidine], which “LOG REDUCTIONS Pseud” value ([4]; Acid pH 4.0) is on record?
The value was 4.9.

What about the “LOG REDUCTIONS Pseud” value ([4]; Alkaline pH 8.5) of the same molecule?
Its value is 9.11.

And the “LOG REDUCTIONS Staph” value ([5]; Acid pH 4.0)?
The value was 1.08.

What about the “LOG REDUCTIONS Staph” value ([5]; Alkaline pH 8.5) of the same molecule?
The value was 7.9.

Which “BPO absorbed through the skin” value [12] does the source give for `O=C(OOC(=O)c1ccccc1)c1ccccc1` [BPO, benzoyl peroxide] here?
Its value is 5-9%.

Which “reduction in the infectivity titer / inactivation” value (C. trachomatis) does the source give for `CCCCCCCCCC(=O)OCC(O)CO` (centres unmarked) [monocaprin] here?
The value was > 5 log 10.

With `Nc1nc2c(ncn2COCCO)c(=O)[nH]1` [Acyclovir, acyclovir] as the molecule, how does the “time to resolution of cold sores” value (cold sores) read?
The value was 7 to 14 days.

Which “Log10 Reduction” value [6] does the source give for `CCCCCCCCN=c1ccn(CCCCCCCCCCn2ccc(=NCCCCCCCC)cc2)cc1` [I: OCT 0.1%, 1 mg/mL, octenidine] here?
Its value is 1.84.

What about the “Percent Reduction” value [6] of the same molecule?
The value was 98.56%.

And the “Log10 CFU/Coupon” value [6]?
The value was 7.31.

What about the “Log10 Reduction” value ([7]; 1 mg/mL.) of the same molecule?
The value was 3.28.

What about the “Percent Reduction” value ([7]; 1 mg/mL.) of the same molecule?
Its value is 99.95%.

What about the “Log10 CFU/Coupon” value ([7]; 1 mg/mL.) of the same molecule?
Its value is 4.93.

With `CCCCCCCC(=O)O` [Caprylic acid] as the molecule, how does the “reduction in the infectivity titer / inactivation” value (C. trachomatis) read?
The value was “negligible effects”.

With `CCCCCCCC(=O)OCC(O)CO` (centres unmarked) [monocaprylin] as the molecule, how does the “reduction in the infectivity titer / inactivation” value (C. trachomatis) read?
The value was “negligible effects”.

For `CCCCCC/C=C\CCCCCCCC(=O)OCC(O)CO` (centres unmarked) [monopalmitolein], which “reduction in the infectivity titer / inactivation” value (C. trachomatis) is on record?
Its value is “negligible effects”.

Which “reduction in the infectivity titer / inactivation” value (C. trachomatis) does the source give for `CCCCCCCC/C=C\CCCCCCCC(=O)OCC(O)CO` (centres unmarked) [monoolein] here?
The value was “negligible effects”.

Which results are given for `CCCCCCCCN=c1ccn(CCCCCCCCCCn2ccc(=NCCCCCCCC)cc2)cc1` [J: OCT 0.02%, 0.2 mg/mL, octenidine]?
Log10 Reduction [6]: 0.80; Percent Reduction [6]: 84.48%; Log10 CFU/Coupon [6]: 8.35; Log10 Reduction ([7]; 0.2 mg/ml): 1.87; Percent Reduction ([7]; 0.2 mg/ml): 98.68%; Log10 CFU/Coupon ([7]; 0.2 mg/ml): 6.34
